The record followed here is PMC8210154, “Tumor-selective, antigen-independent delivery of a pH sensitive peptide-topoisomerase inhibitor conjugate suppresses tumor growth without systemic toxicity” (NAR Cancer, 2021).

For data set [1], the target named is T1, TOP1 protein levels in HCT116 tumor tissue (Homo sapiens, UniProt P11387).
T1 construct: Xenograft tumors were excised, weighed, and minced then were digested to single cells; from tissue; host or cells: HCT116 xenograft tumors from athymic nude mice
T1 sequence (P11387 1-765): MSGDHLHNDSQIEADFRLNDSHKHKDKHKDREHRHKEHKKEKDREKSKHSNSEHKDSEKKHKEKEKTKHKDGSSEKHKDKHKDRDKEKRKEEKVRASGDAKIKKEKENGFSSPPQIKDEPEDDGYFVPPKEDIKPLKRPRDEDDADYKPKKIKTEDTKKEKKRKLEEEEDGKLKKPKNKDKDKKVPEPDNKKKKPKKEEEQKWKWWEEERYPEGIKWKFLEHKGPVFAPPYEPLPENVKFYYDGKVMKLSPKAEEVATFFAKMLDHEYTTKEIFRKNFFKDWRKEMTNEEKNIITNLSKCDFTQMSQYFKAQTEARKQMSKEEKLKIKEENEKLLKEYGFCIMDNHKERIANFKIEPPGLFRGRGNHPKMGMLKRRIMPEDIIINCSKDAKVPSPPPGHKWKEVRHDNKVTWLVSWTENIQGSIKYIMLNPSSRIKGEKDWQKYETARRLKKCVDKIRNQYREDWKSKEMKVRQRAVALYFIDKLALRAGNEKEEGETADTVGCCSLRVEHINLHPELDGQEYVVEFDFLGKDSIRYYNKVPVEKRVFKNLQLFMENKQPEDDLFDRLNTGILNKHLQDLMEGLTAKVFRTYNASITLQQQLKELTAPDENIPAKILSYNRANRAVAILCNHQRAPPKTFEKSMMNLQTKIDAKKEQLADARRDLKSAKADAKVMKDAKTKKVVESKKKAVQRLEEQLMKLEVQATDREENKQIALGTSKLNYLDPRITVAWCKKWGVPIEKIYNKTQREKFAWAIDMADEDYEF
In words: TOP1 FACS assay, HCT116 xenografted tumor of dosed mice. It is filed as in vivo. To be noted: 2.5 μmol/kg for 4 days, 24 h post last dose. On the procedure:
The vials capped and vortexed for 2 min.
Xenograft tumors were excised, weighed, and minced then were digested to single cells with an enzyme mix (Miltenyi; #130-095-929) for 40 min shaking at 37°C. Enzymes were inactivated by adding equal volume of DMEM^+. Digested cells were sequentially filtered through 70 μm then 40 μm filters and centrifuged at 700 rpm for 7 min at 4°C.
(§1) Tumor and bone marrow cells collected 24 h after dosing were permeabilized and fixed for 20 min on ice in the dark (Cytofix/Cytoperm Becton Dickinson; #554714), then washed 2× with Perm Wash. Cells were stained with rabbit anti-topoisomerase 1 antibody (Abcam; #109374) at 1 μg/ml on ice in the dark for 30 min and washed 2×, followed by staining with secondary antibody goat anti-rabbit IgG AF647 (Jackson ImmunoResearch; #111-605-144 diluted 1:1000) on ice in dark for 30 min. After a final 2× wash, the reduction of topoisomerase I (TOP1) protein levels was evaluated by collecting 10,000 (tumor) or 30,000 (BM) cells and determining the number of TOP1 positive stained cells on a BD Accuri™ flow cytometer.

Data set [2] can be described thus: Toxicity in mice (bone marrow cell counts, body weight, stomachs).
Description: Following tumor collection, mice were euthanized by cervical dislocation under anesthesia in accordance with the American Veterinary Medical Association (AVMA) Guidelines for the Euthanasia of Animals. Femurs were removed, and bone marrow was extruded into 50 mL conical tubes by flushing the bones with a 23-gauge needle fitted on a 5cc syringe containing PBS + 2% fetal bovine serum (FBS). Bone marrow was homogenized by gentle pipetting and filtered through 100 μm nylon mesh filters and cells were pelleted by centrifugation at 1200 rpm for 5 min at 4°C. Red blood cells were lysed with 3 mL of lysis buffer for 2 min at room temperature. PBS was added to a volume of 25 mL and cells were re-pelleted by centrifugation as described above. Cell pellets were suspended in 5 mL of PBS and cell count was assessed by trypan blue exclusion on a TC-20 cell counter (BioRad).
Data set [3] addresses T2, TOP1 protein levels in rat bone marrow cells (Rattus norvegicus, UniProt Q9WUL0).
T2 construct: from tissue; host or cells: rat bone marrow cells, dosed ex vivo
T2 sequence (Q9WUL0 1-767): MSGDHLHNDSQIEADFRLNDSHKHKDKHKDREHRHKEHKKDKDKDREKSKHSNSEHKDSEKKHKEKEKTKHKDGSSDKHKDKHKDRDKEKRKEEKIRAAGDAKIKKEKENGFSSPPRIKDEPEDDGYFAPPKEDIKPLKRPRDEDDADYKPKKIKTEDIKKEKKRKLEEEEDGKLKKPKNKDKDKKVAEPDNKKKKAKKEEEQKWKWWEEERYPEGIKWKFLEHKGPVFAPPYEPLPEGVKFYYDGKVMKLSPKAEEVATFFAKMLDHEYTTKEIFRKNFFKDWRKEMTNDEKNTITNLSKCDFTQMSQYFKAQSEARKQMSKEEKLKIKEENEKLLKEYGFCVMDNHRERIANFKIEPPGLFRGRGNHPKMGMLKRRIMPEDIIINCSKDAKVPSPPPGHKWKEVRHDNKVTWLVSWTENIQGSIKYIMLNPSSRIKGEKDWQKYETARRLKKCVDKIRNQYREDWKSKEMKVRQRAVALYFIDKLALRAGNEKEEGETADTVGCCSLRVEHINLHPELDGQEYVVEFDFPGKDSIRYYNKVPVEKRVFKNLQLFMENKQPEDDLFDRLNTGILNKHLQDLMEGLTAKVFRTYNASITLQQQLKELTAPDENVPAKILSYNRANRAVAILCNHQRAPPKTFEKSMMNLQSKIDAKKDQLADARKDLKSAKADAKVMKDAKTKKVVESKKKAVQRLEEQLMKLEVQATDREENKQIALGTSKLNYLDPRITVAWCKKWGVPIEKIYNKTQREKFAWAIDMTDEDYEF
The data set is described as follows: TOP1 FACS assay, rat bone marrow cells dosed ex vivo. To be noted: rat bone marrow cells in vitro, 24 h; read-out: IC50 for TOP1 protein levels. It counts as cell-based. On the procedure: Naïve Sprague-Dawley rat bone marrow cells were plated at 1 × 10^6/ml in 2 mL of RPMI^+ in six-well plates. Cells were allowed to incubate for 3 h at 37°C before compound addition. […] Cells were harvested, washed with PBS and counted.
as §1
On the technique in general: In flow cytometry, cells or beads pass a laser one at a time.

For a further data set, the system named is MKN45 xenografts. In words: MKN45 xenograft in nude mice. As to conditions: MKN45 flank model, 2.3 mg/kg (equimolar to 20 mg/kg CBX-12).
The subject of data set [4] is γH2AX in HCT116 flank tumors. In words: γH2AX immunofluorescence assay in HCT116 flank tumors. It is filed as in vivo, mice. As to conditions: 1.15 mg/kg exatecan, P < 0.001. The protocol: Tumors were collected as detailed above, and FFPE tumor slides were created for IF staining. Antigen retrieval was performed using a heat-induced epitope retrieval (HIER) method, with TRIS-EDTA pH 9.0. Staining with primary antibody (mouse anti-human γH2AX; 1:500, Invitrogen) followed by secondary antibody (Goat anti-mouse Ax594; 1:1000, Invitrogen) was then performed. Images were obtained with a Keyence imager. Data analysis was performed in ImageJ and CellProfiler ([16]). Raincloud plots and heatmap were generated in R version 4.0.3 ([17]). Statistical analysis for γH2AX expression was performed using Kruskal–Wallis test, followed by Dunn's multiple comparison test (GraphPad Prism 9.1.0).

Data set [5] concerns the target T3, TOP1 protein levels in HCT116 cells (Homo sapiens, UniProt P11387).
T3 construct: endogenous in cells; host or cells: HCT116 cells
T3 sequence (P11387 1-765): T1 sequence (P11387 1-765)
In words: TOP1 FACS assay, HCT116 cells dosed in vitro. To be noted: 24 h, read-out: IC50 for TOP1 protein levels. It counts as cell-based. On the procedure:
HCT116 cells were plated at 2.5 × 10^5/mL in 2 mL DMEM^+ in six-well plates. Cells were allowed to attach overnight in 37°C incubator before compound addition. […] Cells were scraped, washed with PBS and counted.
as §1

Data set [6] concerns MDA-MB-231 cells. The data set is described as follows: Short-term viability assay, MDA-MB-231 cells. As to conditions: Homo sapiens. It counts as cell-based. On the procedure: (§2) Microplate-based short-term viability and synergy assays were performed as described previously ([18]).
The target in data set [7] is T4, TOP1 protein levels in bone marrow (Mus musculus, UniProt Q04750).
T4 construct: Mouse bone marrow cells were isolated as described above; from tissue; host or cells: bone marrow of athymic nude mice bearing HCT116 xenografts
T4 sequence (Q04750 1-767): T2 sequence (Q9WUL0 1-767) with D77E, K90R, P141L, L167S, A197P, G239S, K665R
The data set is described as follows: TOP1 FACS assay, bone marrow of dosed mice. To be noted: 2.5 μmol/kg for 4 days, 24 h post last dose. It is filed as in vivo. On the procedure: Mouse bone marrow cells were isolated as described above.
as §1

Data set [8] concerns MDA-MB-231 cells. In words: Synergy assay (Bliss) exatecan with talazoparib, MDA-MB-231 cells. It is filed as cell-based, human. As to conditions: Bliss synergy analysis.
Data set [9] can be described thus: Toxicity in rats (body weight, duodenum H&E histology). It counts as in vivo. The text has this:
Duodenal tissue samples were fixed in 10% neutral buffered formalin, processed and embedded in paraffin. Tissue cross sections (5 μm) were mounted on positively charged microscope slides and stained with hematoxylin and eosin (H&E) (PolyScientific R&D, New York). Images were taken of tissue sections by standard light microscopy using an EVOS FL Cell Imaging System (Life Technologies) for histomorphological evaluation of intestinal inflammation.

The subject of another data set is HCT116 cells. The data set is described as follows: In vitro cell killing, HCT116 cells. It counts as cell-based. As to conditions: Homo sapiens, HCT-116, data not shown. The protocol: as §2

Structures are written as SMILES. Positions count from the first letter of the chain named. Entries after “also recorded” stand apart in the source; their conditions may differ.

What is called IC50 is the midpoint of a concentration-inhibition curve. With `CC[C@@]1(O)C(=O)OCc2c1cc1n(c2=O)Cc2c-1nc1cc(F)c(C)c3c1c2[C@@H](N)CC3` [exatecan], the “TOP1 protein levels in HCT116 flank tumor tissue” value in data set [1] is “decreased”. Besides, the body weight entry is “significant and unrecoverable body weight reductions” in [2] (mice (Figure 3B)); “significant and unrecoverable body weight reductions” in [9] (rats (Figure 3C)). The “bone marrow cell counts” value in data set [2] (mice, equimolar doses) is recorded as “drastic bone marrow suppression”. The DC50 in data set [3] is 27.3 nM; in data set [5], 24.8 nM. The tolerability entry with MKN45 xenografts is “not tolerated and was lethal in all animals”. Further, in [4], the “γH2AX expression after second cycle compared to first cycle” value is “significant higher γH2AX expression; also recorded: significantly higher γH2AX expression”. The IC50 in the data set with MDA-MB-231 cells [6] is 0.21 nM; with HCT116 cells, 0.2 nM. In addition, the “TOP1 protein levels in bone marrow” value in data set [7] was “decreased”. For the same compound, in the data set on MDA-MB-231 cells [8], the “interaction when combined with talazoparib” value is “robust synergy”. Besides, the “GI toxicity microscopically (H&E of duodenum)” value in [9] (rat, in vivo) is reported as “significant GI toxicity”.
